Data published in US8802138B2, “Methods and compositions for improved deliver, expression or activity of RNA interference agents” (priority 2009, dated 2014).
“Also recorded” adds a separate entry of the source.

What was measured:
[1] = tested on: Hs766T, MCF7 and PC3 cells; assay: siGLO release after pretreatment with enabler agent, confocal fluorescence microscopy; assay type: cell-based, human; details: agent 4 hours, then liposomal siGLO (DC-RNAi) 6 hours
Method: (§1) The effectiveness of RIDES in enhancing the intracellular bioavailability of RNAi (i.e., promoting the delivery of RNAi to the cytosol and the release of RNAi from liposomes, endosomes or lysosomes) was studied by monitoring the intracellular trafficking and locations of lipid vectors and RNAi using confocal fluorescence microscopy. […] For monitoring the location of liposomes, rodamine-labeled lipids (red fluorescence) was added to the liposome during liposome preparation. Internalization of siGLO-containing liposomes into the cytosol of a cell yields punctuated red and green fluorescence signals.
Three studies were conducted using siGLO as the RNAi. The lipid vector was the DC liposomes. The study was performed in one or more of three human tumor cell lines, i.e., pancreatic Hs766T, breast cancer MCF7, and prostate cancer PC3.
The first study evaluated the effects of pretreatment with enabler agents. […] Additional cytotoxic agents not acting through tubulin interaction or topoisomerase inhibition, i.e., cisplatin and 5-fluorouracil, were included as side-by-side comparisons. Cells were treated with one of these agents for 4 hours, followed by incubation with liposomal siGLO for 6 hours. […] After pretreatment with enabler agent, cells were washed with cold FBS-free medium for 3 times, fixed with formalin, stained with the nucleus dye DRAQ5, and examined using confocal fluorescence microscopy. […] Because only the free siGLO (not embedded in liposomes) can enter the nucleus, the nuclear accumulation of siGLO indicates the release of RNAi from the liposomes, endosomes, or lysosomes.

[2] = tested on: prostate cancer PC3 cells; assay: siGLO release with concurrent enabler treatment, confocal microscopy; assay type: cell-based, human; details: agent concurrent with the siGLO treatment
Method: as §1
The study was performed in prostate cancer PC3 cells.

prostate PC3 = assay: Paclitaxel cytotoxicity, MTT assay; assay type: cell-based; details: Homo sapiens, read-out: 50% inhibition of IC50 (nM); PC3, 48 hours
pancreatic HS766T = assay: Paclitaxel cytotoxicity, MTT assay; assay type: cell-based, human
Method: (§2) In vivo antitumor activity was measured in tumor-bearing animals. In vitro antitumor activity was measured in cultured cells using the microtetrazolium assay (MTT). This assay measures the ability of cells to reduce the MTT dye, and is generally used as a measurement of the total cell number.
(§3) This was evaluated in porcine arterial smooth muscle cells; the duration of drug treatment was 36 hours. […] Cytotoxicity was measured using the using the MTT assay.

HS766T cells [3] = assay: Cytotoxicity of 4 hour paclitaxel treatment, MTT assay; assay type: cell-based, human; details: 10 nM for 4 hours
Method: as §2

breast MCF7 cells = assay: Paclitaxel cytotoxicity, MTT assay; assay type: cell-based, human
[4] = tested on: porcine arterial smooth muscle cells; assay: Paclitaxel cytotoxicity, MTT assay, normal cells; assay type: cell-based
Method: as §2, §3

HS766T cells [5] = assay: Concentration-dependence of paclitaxel effect on siGLO transfection; assay type: cell-based, human; details: 10 and 50 nM for 4 hours
Method: as §1

[6] = concentration time product producing 50% cytotoxicity

Row | SMILES | nuclear accumulation of siGLO (release of RNAi from liposomes, endosomes or lysosomes) [1] | nuclear accumulation of siGLO [2] | other results
1 | CC[C@]1(O)C[C@H]2CN(CCc3c([nH]c4ccccc34)[C@@](C(=O)OC)(c3cc4c(cc3OC)N(C=O)[C@H]3[C@@](O)(C(=O)OC)[C@H](OC(C)=O)[C@]5(CC)C=CCN6CC[C@]43[C@@H]65)C2)C1 [vincristine] | induced nuclear accumulation of green fluorescence signals | – | –
2 | COc1cc2c(c(OC)c1OC)-c1ccc(OC)c(=O)cc1[C@@H](NC(C)=O)CC2 [colchicine] | induced nuclear accumulation of green fluorescence signals | – | –
3 | O=c1[nH]cc(F)c(=O)[nH]1 [5-fluorouracil] | did not change the punctated pattern of siGLO localization; also recorded: ineffective | – | –
4 | N.N.[Cl][Pt][Cl] [cisplatin] | did not change the punctated pattern of siGLO localization; also recorded: ineffective | ineffective | –
5 | COC(=O)Nc1nc2ccc(C(=O)c3cccs3)cc2[nH]1 [nocodazole] | induced nuclear accumulation of green fluorescence signals | extensive nuclear accumulation of siGLO | –
6 | CC(=O)O[C@@]12CO[C@@H]1C[C@H](O)[C@@]1(C)C(=O)[C@H](O)C3=C(C)[C@@H](OC(=O)[C@H](O)[C@@H](NC(=O)OC(C)(C)C)c4ccccc4)C[C@@](O)([C@@H](OC(=O)c4ccccc4)[C@H]21)C3(C)C [docetaxel] | induced nuclear accumulation of green fluorescence signals | – | –
7 | COc1cccc2c1C(=O)c1c(O)c3c(c(O)c1C2=O)C[C@@](O)(C(=O)CO)C[C@@H]3O[C@H]1C[C@H](N)[C@H](O)[C@H](C)O1 [doxorubicin] | induced nuclear accumulation of green fluorescence signals | – | –
8 | CC(=O)O[C@H]1C(=O)[C@@]2(C)[C@H]([C@H](OC(=O)c3ccccc3)[C@]3(O)C[C@H](OC(=O)[C@H](O)[C@@H](NC(=O)c4ccccc4)c4ccccc4)C(C)=C1C3(C)C)[C@]1(OC(C)=O)CO[C@@H]1C[C@@H]2O [paclitaxel] | induced nuclear accumulation of green fluorescence signals | extensive nuclear accumulation of siGLO | IC50 (prostate PC3): 15.5 nM; IC50 (pancreatic HS766T; Homo sapiens, read-out: 50% inhibition of IC50 (nM), 48 hours): 12.7 nM; CxT (nMxhr) (pancreatic HS766T; [6]): 610 nMxhr; cytotoxicity (HS766T cells [3]): no apparent toxicity; IC50 (breast MCF7 cells; Homo sapiens, read-out: 50% inhibition of IC50 (nM), MCF7, 48 hours): 5.2 nM; CxT (nMxhr) (breast MCF7 cells; concentration time product producing 50% cytotoxicity, MCF7): 250 nMxhr; IC50 ([4]; Sus scrofa, read-out: 50% inhibition of IC50 (nM), 36 hours): 113 nM; CxT (nMxhr) [4, 6]: 4068 nMxhr; appearance of siGLO in the nucleus (HS766T cells [5]): enhanced the appearance of siGLO in the nucleus at both concentrations; also recorded: effective
